Experimental data: article PMC2248166, “Quantitative peptide binding motifs for 19 human and mouse MHC class I molecules derived using positional scanning combinatorial peptide libraries” (Immunome Research, 2008)
Where a SMILES comes first, the peptide text is derived from it.

These compounds were tested against HLA B*1501 (Homo sapiens, UniProt P01889, A329T/A93T/A95T/C349S/D201E/D98Y/E187L/E204Q/E69M/E70A/K202T/N87E/Q94N/R155S/R180W/S121R/S35A/S48A/V306I/V36M/Y140S/Y91S) (assay: biochemical).
Assay type: binding

Question: For CC[C@H](C)[C@H](NC(=O)[C@H](C)NC(=O)[C@@H](N)Cc1ccccc1)C(=O)N[C@@H](CO)C(=O)N[C@@H](Cc1ccc(O)cc1)C(=O)N[C@@H](CS)C(=O)N[C@@H](CCCNC(=N)N)C(=O)N[C@@H](C)C(=O)N[C@@H](Cc1ccccc1)C(=O)O [3102.0920] (H-FAISYCRAF-OH), which IC50 is on record?
Answer: Its IC50 is 76 nM.

Question: With CC[C@H](C)[C@H](NC(=O)[C@@H](N)CCCCN)C(=O)N[C@@H](CCCCN)C(=O)N[C@@H](Cc1c[nH]cn1)C(=O)N[C@@H](CCCCN)C(=O)NCC(=O)N[C@@H](CCSC)C(=O)N[C@@H](CO)C(=O)N[C@@H](Cc1ccccc1)C(=O)O [3102.0851] (H-KIKHKGMSF-OH) as the compound, how does the IC50 read?
Answer: The IC50 was 47 nM.

Question: CSCC[C@H](NC(=O)[C@@H](N)C(C)C)C(=O)N[C@H](C(=O)N[C@@H](CCCCN)C(=O)N[C@@H](Cc1c[nH]c2ccccc12)C(=O)N[C@@H](CS)C(=O)N[C@@H](C)C(=O)N1CCC[C@H]1C(=O)N[C@@H](Cc1ccccc1)C(=O)O)[C@@H](C)O [3102.0886] (H-VMTKWCAPF-OH) was tested. Which IC50 did it give?
Answer: Its IC50 is 1.9 nM.

Question: For CC[C@H](C)[C@H](NC(=O)[C@@H](NC(=O)[C@@H](NC(=O)[C@H](C)NC(=O)[C@H](CCSC)NC(=O)[C@@H](N)Cc1ccc(O)cc1)[C@@H](C)O)[C@@H](C)O)C(=O)N[C@@H](CC(C)C)C(=O)N[C@@H](CCC(=O)O)C(=O)N[C@@H](CCSC)C(=O)O [3102.0830] (H-YMATTILEM-OH), which IC50 is on record?
Answer: Its IC50 is 2.2 nM.

Question: For CC[C@H](C)[C@H](NC(=O)[C@H](CC(N)=O)NC(=O)[C@H](C)NC(=O)[C@@H](NC(=O)[C@@H](N)CC(C)C)[C@@H](C)CC)C(=O)N[C@@H](Cc1c[nH]cn1)C(=O)N[C@@H](CC(N)=O)C(=O)N[C@@H](Cc1c[nH]cn1)C(=O)N[C@@H](CCSC)C(=O)O [3102.1046] (H-LIANIHNHM-OH), which IC50 is on record?
Answer: Its IC50 is 0.67 nM.

Question: C[C@@H](O)[C@H](NC(=O)[C@H](Cc1ccccc1)NC(=O)[C@H](CO)NC(=O)[C@@H](N)CCCNC(=N)N)C(=O)N[C@@H](Cc1ccccc1)C(=O)N[C@@H](CCCCN)C(=O)N[C@@H](CCC(=O)O)C(=O)NCC(=O)N[C@@H](Cc1ccccc1)C(=O)O [3102.0988] (H-RSFTFKEGF-OH) was tested. Which IC50 did it give?
Answer: The IC50 was 35 nM.

Question: How did the IC50 turn out when CC[C@H](C)[C@H](NC(=O)[C@@H](N)Cc1ccccc1)C(=O)N[C@@H](CC(N)=O)C(=O)N[C@@H](CCSC)C(=O)N[C@H](C(=O)NCC(=O)N[C@@H](CC(N)=O)C(=O)N[C@@H](Cc1c[nH]cn1)C(=O)N[C@@H](Cc1ccccc1)C(=O)O)[C@@H](C)O [3102.1288] (H-FINMTGNHF-OH) was run?
Answer: Its IC50 is 16 nM.

Question: CC[C@H](C)[C@H](NC(=O)CN)C(=O)N[C@@H](CC(N)=O)C(=O)N[C@@H](CCCCN)C(=O)N[C@@H](CCCNC(=N)N)C(=O)N[C@@H](CO)C(=O)N[C@H](C(=O)N1CCC[C@H]1C(=O)N[C@@H](Cc1ccccc1)C(=O)O)[C@@H](C)O [3102.0792] (H-GINKRSTPF-OH) was tested. Which IC50 did it give?
Answer: Its IC50 is 0.72 nM.

Question: How did the IC50 turn out when CC[C@H](C)[C@H](NC(=O)[C@H](CCC(=O)O)NC(=O)[C@H](Cc1ccccc1)NC(=O)[C@H](Cc1ccccc1)NC(=O)[C@@H](NC(=O)[C@@H](N)Cc1ccc(O)cc1)C(C)C)C(=O)N[C@H](C(=O)N[C@@H](Cc1c[nH]cn1)C(=O)N[C@@H](Cc1ccccc1)C(=O)O)[C@@H](C)CC [3102.1024] (H-YVFFEIIHF-OH) was run?
Answer: The IC50 was 0.69 nM.

Question: With CC(C)C[C@H](N)C(=O)NCC(=O)N[C@@H](Cc1ccccc1)C(=O)N[C@@H](CC(=O)O)C(=O)N[C@H](C(=O)N[C@H](C(=O)N[C@@H](C)C(=O)N[C@@H](Cc1ccc(O)cc1)C(=O)N[C@@H](Cc1ccccc1)C(=O)O)C(C)C)C(C)C [3102.0790] (H-LGFDVVAYF-OH) as the compound, how does the IC50 read?
Answer: Its IC50 is 67 nM.

Question: CC[C@H](C)[C@H](NC(=O)[C@H](CO)NC(=O)[C@@H](N)CC(C)C)C(=O)N[C@@H](Cc1ccccc1)C(=O)N[C@@H](Cc1ccccc1)C(=O)N[C@H](C(=O)N[C@H](C(=O)N[C@H](C(=O)N[C@@H](C)C(=O)O)C(C)C)C(C)C)[C@@H](C)CC [3102.1004] (H-LSIFFIVVA-OH) was tested. Which IC50 did it give?
Answer: The IC50 was 82 nM.

Question: CC[C@H](C)[C@H](NC(=O)[C@H](CC(C)C)NC(=O)[C@H](CC(=O)O)NC(=O)[C@H](CCCNC(=N)N)NC(=O)[C@H](CCSC)NC(=O)[C@@H](N)CC(N)=O)C(=O)N[C@H](C(=O)N[C@H](C(=O)N[C@@H](Cc1ccccc1)C(=O)O)[C@@H](C)O)C(C)C [3102.0975] (H-NMRDLIVTF-OH) was tested. Which IC50 did it give?
Answer: The IC50 was 8.3 nM.

Question: Which IC50 does the source give for CC[C@H](C)[C@H](NC(=O)[C@H](CO)NC(=O)[C@H](C)N)C(=O)N[C@H](C(=O)N[C@@H](C)C(=O)N[C@@H](Cc1ccccc1)C(=O)N[C@@H](CCCCN)C(=O)N[C@@H](CO)C(=O)N[C@@H](CCSC)C(=O)O)[C@@H](C)O [3102.0999] (H-ASITAFKSM-OH) here?
Answer: The IC50 was 25 nM.

Question: How did the IC50 turn out when CC[C@H](C)[C@H](NC(=O)[C@@H]1CCCN1C(=O)[C@H](CCC(=O)O)NC(=O)[C@H](CC(N)=O)NC(=O)[C@H](CO)NC(=O)[C@H](CC(=O)O)NC(=O)[C@H](Cc1ccccc1)NC(=O)[C@H](CC(C)C)NC(=O)[C@@H](N)CC(C)C)C(=O)O [3102.0916] (H-LLFDSNEPI-OH) was run?
Answer: The IC50 was 16 nM.

Question: With NCCCC[C@H](NC(=O)[C@H](CCCCN)NC(=O)[C@H](CO)NC(=O)[C@@H](N)CCCCN)C(=O)N[C@@H](Cc1ccc(O)cc1)C(=O)N[C@@H](CCC(=O)O)C(=O)NCC(=O)N1CCC[C@H]1C(=O)N[C@@H](Cc1ccccc1)C(=O)O [3102.0833] (H-KSKKYEGPF-OH) as the compound, how does the IC50 read?
Answer: The IC50 was 1.9 nM.

Question: CSCC[C@H](N)C(=O)N[C@@H](CCC(=O)O)C(=O)N[C@@H](CCCNC(=N)N)C(=O)N[C@@H](Cc1ccccc1)C(=O)N[C@@H](CC(N)=O)C(=O)N[C@@H](CS)C(=O)N[C@@H](CO)C(=O)N[C@@H](CO)C(=O)N[C@@H](Cc1ccccc1)C(=O)O [3102.0839] (H-MERFNCSSF-OH) was tested. Which IC50 did it give?
Answer: The IC50 was 1.6 nM.

Question: For CSCC[C@H](NC(=O)[C@H](CCCNC(=N)N)NC(=O)[C@H](CS)NC(=O)[C@@H]1CCCN1C(=O)[C@H](CO)NC(=O)[C@@H](N)CCSC)C(=O)N[C@@H](Cc1ccccc1)C(=O)N[C@@H](CO)C(=O)N[C@@H](Cc1ccccc1)C(=O)O [3102.0921] (H-MSPCRMFSF-OH), which IC50 is on record?
Answer: Its IC50 is 17 nM.

Question: How did the IC50 turn out when CC[C@H](C)[C@H](N)C(=O)N[C@H](C(=O)N[C@H](C(=O)N1CCC[C@H]1C(=O)N[C@@H](Cc1ccccc1)C(=O)N[C@H](C(=O)N[C@@H](C)C(=O)N[C@@H](Cc1ccc(O)cc1)C(=O)N[C@@H](Cc1ccccc1)C(=O)O)[C@@H](C)CC)[C@@H](C)CC)[C@@H](C)CC [3102.0892] (H-IIIPFIAYF-OH) was run?
Answer: Its IC50 is 1.6 nM.

Question: For CC[C@H](C)[C@H](NC(=O)[C@@H](N)Cc1c[nH]cn1)C(=O)N[C@@H](CC(N)=O)C(=O)N[C@@H](CCCCN)C(=O)N[C@@H](CC(C)C)C(=O)N[C@@H](Cc1ccccc1)C(=O)N[C@@H](CO)C(=O)N[C@H](C(=O)N[C@@H](Cc1ccccc1)C(=O)O)C(C)C [3102.0997] (H-HINKLFSVF-OH), which IC50 is on record?
Answer: The IC50 was 0.92 nM.

Question: With CC[C@H](C)[C@H](NC(=O)[C@H](C)NC(=O)[C@@H](N)CC(C)C)C(=O)N1CCC[C@H]1C(=O)N[C@@H](C)C(=O)N[C@H](C(=O)N[C@@H](CCC(=O)O)C(=O)N[C@@H](Cc1ccccc1)C(=O)N[C@@H](Cc1ccccc1)C(=O)O)[C@@H](C)O [3102.1001] (H-LAIPATEFF-OH) as the compound, how does the IC50 read?
Answer: The IC50 was 4.2 nM.

Question: With CC[C@H](C)[C@H](NC(=O)[C@H](Cc1ccc(O)cc1)NC(=O)[C@@H](NC(=O)[C@H](CC(N)=O)NC(=O)[C@H](CCC(=O)O)NC(=O)[C@@H](N)CCSC)C(C)C)C(=O)N[C@@H](CO)C(=O)N[C@@H](CO)C(=O)N[C@@H](Cc1ccc(O)cc1)C(=O)O [3102.1042] (H-MENVYISSY-OH) as the compound, how does the IC50 read?
Answer: The IC50 was 2 nM.
